≈ marks a conversion by molar mass, not a printed value. Where two headings read alike, the source gives them in different places.
What was measured:
[1] = tested on: Corynebacterium pyrogenes C-21; assay: In vitro antibacterial activity (MIC); assay type: cell-based
Text: (§1) The numerals in the table show minimum inhibitory concentrations (MIC)

[2] = tested on: Enterobacter cloacae P-2540; assay: In vitro antibacterial activity (MIC); assay type: cell-based
Text: as §1

[3] = tested on: Escherichia coli NIHJ JC-2; assay: In vitro antibacterial activity (MIC); assay type: cell-based
Text: as §1

Escherichia coli P-5101 [4] = assay: In vitro antibacterial activity (MIC); assay type: cell-based
Text: as §1

[5] = tested on: Klebsiella pneumoniae No. 13; assay: In vitro antibacterial activity (MIC); assay type: cell-based
Text: as §1

Proteus mirabilis P-2381 = assay: In vitro antibacterial activity (MIC); assay type: cell-based
Text: as §1

Proteus morganii Kono = assay: In vitro antibacterial activity (MIC); assay type: cell-based; conditions: Morganella morganii, read-out: minimum inhibitory concentration (MIC)
Text: as §1

[6] = tested on: Pseudomonas aeruginosa No. 12; assay: In vitro antibacterial activity (MIC); assay type: cell-based
Text: as §1

[7] = tested on: Pseudomonas aeruginosa Tsuchijima; assay: In vitro antibacterial activity (MIC); assay type: cell-based; conditions: read-out: minimum inhibitory concentration (MIC)
Text: as §1

[8] = tested on: Salmonella enteritidis No. 1891; assay: In vitro antibacterial activity (MIC); assay type: cell-based; conditions: Salmonella enterica, read-out: minimum inhibitory concentration (MIC)
Text: as §1

[9] = tested on: Salmonella typhimurium S-9; assay: In vitro antibacterial activity (MIC); assay type: cell-based; conditions: Salmonella enterica, read-out: minimum inhibitory concentration (MIC)
Text: as §1

[10] = tested on: Serratia marcescens IFO 3736; assay: In vitro antibacterial activity (MIC); assay type: cell-based
Text: as §1

[11] = tested on: Staphylococcus aureus 209P JC-1; assay: In vitro antibacterial activity (MIC); assay type: cell-based; conditions: read-out: minimum inhibitory concentration (MIC)
Text: as §1

[12] = tested on: Staphylococcus aureus No. 50774; assay: In vitro antibacterial activity (MIC); assay type: cell-based
Text: as §1

[13] = tested on: Streptococcus pyrogenes 65A; assay: In vitro antibacterial activity (MIC); assay type: cell-based; conditions: read-out: minimum inhibitory concentration (MIC)
Text: as §1

Escherichia coli P-140a = assay: In vitro antibacterial activity (MIC); assay type: cell-based; conditions: for MIC: Escherichia coli, read-out: minimum inhibitory concentration (MIC)
Text: as §1
(§2) *Clinically isolated Cephalexinresistant strain.

Shigella flexneri 2a = assay: In vitro antibacterial activity (MIC); assay type: cell-based; conditions: read-out: minimum inhibitory concentration (MIC)
Text: as §1, §2

[14] = tested on: Shigella flexneri 4a P-330; assay: In vitro antibacterial activity (MIC); assay type: cell-based
Text: as §1, §2

[15] = tested on: Staphylococcus aureus No. 50774; assay: In vivo efficacy against systemic infection in mice; parameters: species or system male mice (ddY); conditions: read-out: ED50 (median effective dose)
Description: (§3) Compounds 1,2, A and B were each dissolved in deionized water to prepare injectable solutions having various concentrations.
(§4) Each of the injectable solutions was administered to mice infected with each of the bacteria described below under the conditions described below, and the median effective doses (ED50) obtained are shown in Table II. […]
(§5) male mice (ddY) weighing about 20 g
(1) Staphylococcus aureus No. 50774; Intravenous infection with 50 to 100 LD50 (about 5×10^8 cells/mouse) of a bacterial suspension in saline. twice, about 5 minutes and 6 hours after infection. […]
(§6) Note; The numerals in the table show ED50 (mg/kg). ED50 values
(§7) were calculated in accordance with the BehrensKaerber method (Arch. Exp.

Escherichia coli P-5101 [16] = assay: as above; parameters: species or system male mice (ddY); conditions: read-out: ED50 (median effective dose)
Description: as §3
Each of the injectable solutions was administered to mice infected with each of the bacteria described below under the conditions described below, and the median effective doses (ED50) obtained are shown in Table II.
as §5
(2) Escherichia coli P-5101; Intraperitoneal infection with 50 to 100 LD50 (about 9×10^6 cells/mouse) of a bacterial suspension in trypto-soy broth with 4% mucin.
twice, about 5 minutes and 6 hours after infection.
as §6, §7

[17] = tested on: Pseudomonas aeruginosa No. 12; assay: as above; parameters: species or system male mice (ddY); conditions: read-out: ED50 (median effective dose)
Description: as §3, §4, §5
(3) Pseudomonas aeruginosa No. 12; Intraperitoneal infection with 50 to 100 LD50 (about 5×10^3 cells/mouse) of a bacterial suspension in trypto-soy broth with 4% mucin. twice, about 5 minutes and 6 hours after infection. […]
as §6, §7

Acute toxicity in mice = conditions: mouse, in vivo, read-out: LD50 (median lethal dose)
Description: Injectable solutions containing compounds 1, 2 and compound A in various concentrations were administered to male mice (ddY) (4 to 8 in each group) in a dose of 0.1 ml per 10 g of body weight. The number of dead mice was counted after a lapse of 7 days, and the value of median lethal dose (LD50, mg/kg) was calculated.
Note: The LD50 values were calculated in accordance with the […]

Solubility in water = assay type: physicochemical; conditions: for solubility: deionized water at 25° C.; for Solubility in water (in words): water / deionized water / aqueous medium
Description: |Solubility in deionized water at 25° C.

[18] = tested on: Gram-negative and Gram-positive bacteria; assay: Antibacterial activity (general statement)
[19] = Enterobacter cloacae, P2540, read-out: minimum inhibitory concentration (MIC)
[20] = Escherichia coli, NIHJJC2, read-out: minimum inhibitory concentration (MIC)
[21] = Proteus mirabilis, P2381, read-out: minimum inhibitory concentration (MIC)
[22] = Pseudomonas aeruginosa, NO.12, read-out: minimum inhibitory concentration (MIC)
[23] = Staphylococcus aureus, NO.50774, read-out: minimum inhibitory concentration (MIC)
[24] = C21, Corynebacterium pyrogenes C-21, in vitro, read-out: minimum inhibitory concentration (MIC)
[25] = P2540, Enterobacter cloacae P-2540, in vitro, read-out: minimum inhibitory concentration (MIC)
[26] = NIHJJC2, Escherichia coli NIHJ JC-2, in vitro, read-out: minimum inhibitory concentration (MIC)
[27] = P5101, Escherichia coli P-5101, in vitro, read-out: minimum inhibitory concentration (MIC)
[28] = Klebsiella pneumoniae No. 13, in vitro, read-out: minimum inhibitory concentration (MIC)
[29] = P2381, Proteus mirabilis P-2381, in vitro, read-out: minimum inhibitory concentration (MIC)
[30] = Proteus morganii Kono, in vitro
[31] = Pseudomonas aeruginosa No. 12, in vitro, read-out: minimum inhibitory concentration (MIC)
[32] = Salmonella enteritidis No. 1891, in vitro
[33] = IFO3736, Serratia marcescens IFO 3736, in vitro, read-out: minimum inhibitory concentration (MIC)
[34] = Staphylococcus aureus 209P JC-1, in vitro
[35] = Staphylococcus aureus No. 50774, in vitro, read-out: minimum inhibitory concentration (MIC)
[36] = Streptococcus pyrogenes 65A, in vitro
[37] = Shigella flexneri 2a, clinically isolated Cephalexin-resistant strain, in vitro
[38] = 4AP330, Shigella flexneri 4a P-330, clinically isolated Cephalexin-resistant strain, in vitro, read-out: minimum inhibitory concentration (MIC)
[39] = NO.50774, 336 h, mice, sc, twice about 5 minutes and 6 hours after intravenous infection, observation 14 days
[40] = P5101, 168 h, mice, sc, twice about 5 minutes and 6 hours after intraperitoneal infection, observation 7 days
[41] = NO.12, 168 h, mice, po, twice about 5 minutes and 6 hours after intraperitoneal infection, observation 7 days
[42] = NO.12, 168 h, mice, sc, twice about 5 minutes and 6 hours after intraperitoneal infection, observation 7 days

Compound | MIC [2, 19] [µg/mL] | MIC [3, 20] [µg/mL] | MIC (Proteus mirabilis P-2381; [21]) [µg/mL] | MIC (Proteus morganii Kono) [µg/mL] | MIC ([7]; Pseudomonas aeruginosa) [µg/mL] | MIC ([9]; TYPHIMURIUM) [µg/mL] | MIC (Escherichia coli P-140a) [µg/mL] | solubility (Solubility in water) [mg/mL] | MIC [1, 24] [µg/mL] | MIC (Escherichia coli P-5101 [4]; [27]) [µg/mL] | MIC [5, 28] [µg/mL] | MIC [8, 32] [µg/mL] | MIC [10, 33] [µg/mL] | MIC [13, 36] [µg/mL] | MIC (Shigella flexneri 2a; [37]) [µg/mL] | MIC [14, 38] [µg/mL] | ED50 [15, 39] [mg/kg] | ED50 (Escherichia coli P-5101 [16]; [40]) [mg/kg] | ED50 [17, 41] [mg/kg] | ED50 [17, 42] [mg/kg] | further results
Cn1nnnc1SCC1=C(C(=O)[O-])N2C(=O)C(NC(=O)[C@H](NC(=O)c3c[nH]c4nc(N5CCNCC5)ncc4c3=O)c3ccc(O)cc3)[C@H]2SC1.[Na+] (some centres unmarked) | 3.13 | 1.56 | 12.5 | 25 | 3.13 | 0.78 | 1.56 | ~0.5 |  |  |  |  |  |  |  |  |  |  |  |  | MIC ([1]; Corynebacterium, C21, read-out: minimum inhibitory concentration (MIC)): 6.25 µg/mL; MIC (Escherichia coli P-5101 [4]; Escherichia coli, P5101, read-out: minimum inhibitory concentration (MIC)): 0.78 µg/mL; MIC ([5]; Klebsiella pneumoniae, NO.13, read-out: minimum inhibitory concentration (MIC)): 0.78 µg/mL; MIC [6, 22]: 6.25 µg/mL; MIC ([8]; ENTERITIDIS): 0.78 µg/mL; MIC ([10]; Serratia marcescens, IFO3736, read-out: minimum inhibitory concentration (MIC)): 6.25 µg/mL; MIC ([11]; Staphylococcus aureus, 209P): 3.13 µg/mL; MIC [12, 23]: 6.25 µg/mL; MIC ([13]; Streptococcus, 65A): 0.2 µg/mL; MIC (Shigella flexneri 2a; Shigella flexneri, 2A): 0.78 µg/mL; MIC ([14]; Shigella flexneri, 4AP330, read-out: minimum inhibitory concentration (MIC)): 12.5 µg/mL; ED50 ([15]; NO.50774, sc, 336 h): ~7.8 mg/kg; ED50 (Escherichia coli P-5101 [16]; P5101, sc, 168 h): ~0.4 mg/kg; ED50 ([17]; NO.12, po, 168 h): > 100 mg/kg; ED50 ([17]; NO.12, sc, 168 h): 4.8 mg/kg; LD50 at 168 h (Acute toxicity in mice; ip): ~1500 mg/kg; Solubility in water (in words) (Solubility in water): extremely low solubility in water; antibacterial activity (in words) [18]: superior antibacterial activity as the compound of the present invention
Cn1nnnc1SCC1=C(C(=O)O)N2C(=O)C(NC(=O)C(NC(=O)c3c[nH]c4nc(N5CCNCC5)ncc4c3=O)c3ccc(O)cc3)C2SC1 (centres unmarked) |  |  |  |  |  |  |  |  |  |  |  |  |  |  |  |  |  |  |  |  | Solubility in water (in words) (Solubility in water): soluble in deionized water in the same degree as compound A
Cc1nnc(SCC2=C(C(=O)O)N3C(=O)[C@@H](NC(=O)Cn4cnnn4)[C@H]3SC2)s1 [B, Cefazolin] |  |  |  |  |  |  |  | 400 (≈ 880000 µM) | 0.39 (≈ 0.858 µM) | 1.56 (≈ 3.43 µM) | 3.13 (≈ 6.89 µM) | 1.56 (≈ 3.43 µM) | > 200 | 0.1 (≈ 0.22 µM) | 3.13 (≈ 6.89 µM) | > 200 | 0.2 | 5.3 | > 100 | > 800 | MIC [2, 25]: > 200 µg/mL; MIC [3, 26]: 1.56 µg/mL (≈ 3.43 µM); MIC (Proteus mirabilis P-2381; [29]): 6.25 µg/mL (≈ 13.8 µM); MIC (Proteus morganii Kono; [30]): > 200 µg/mL; MIC [6, 31]: > 200 µg/mL; MIC ([7]; Pseudomonas aeruginosa Tsuchijima, in vitro): > 200 µg/mL; MIC ([9]; Salmonella typhimurium S-9, in vitro): 1.56 µg/mL (≈ 3.43 µM); MIC [11, 34]: 0.2 µg/mL (≈ 0.44 µM); MIC [12, 35]: 0.2 µg/mL (≈ 0.44 µM); minimum inhibitory concentration (MIC) (Escherichia coli P-140a): > 200 µg/mL
O=CN1CCN(c2ncc3c(=O)c(C(=O)N[C@@H](C(=O)N[C@@H]4C(=O)N5C(C(=O)O)=C(CSc6nnnn6CC(=O)O)CS[C@H]45)c4ccc(O)cc4)c[nH]c3n2)CC1 [Compound 1, Disodium 7-{D-α-[5,8-dihydro-2-(4-formyl-1-piperazinyl)-5-oxopyrido[2,3-d]pyrimidine-6-carboxamido]-α-p-hydroxyphenylacetamido}-3-(1-carboxylatomethyl-1,2,3,4-tetrazol-5-yl)thiomethyl-3-cephem-4-carboxylate] | 1.56 | 1.56 |  | 1.56 | 1.56 | 1.56 | 1.56 | ~400 | 3.13 | 0.78 | 1.56 | 0.78 | 3.13 | 0.2 | 1.56 | 6.25 | 13.1 | 1.5 | > 100 | 4.8 | MIC (Proteus mirabilis P-2381; [29]): 0.78 µg/mL; MIC [6, 22]: 6.25 µg/mL; MIC ([11]; Staphylococcus aureus, 209P): 6.25 µg/mL; MIC [12, 23]: 6.25 µg/mL; LD50 at 168 h (Acute toxicity in mice; iv): > 2000 mg/kg
O=CN1CCN(c2ncc3c(=O)c(C(=O)N[C@@H](C(=O)N[C@@H]4C(=O)N5C(C(=O)O)=C(CSc6nnc(CC(=O)O)s6)CS[C@H]45)c4ccc(O)cc4)c[nH]c3n2)CC1 [Compound 2, Disodium 7-{D-α-[5,8-dihydro-2-(4-formyl-1-piperazinyl)-5-oxopyrido[2,3-d]pyrimidine-6-carboxamido]-α-p-hydroxyphenylacetamido}-3-(5-carboxylatomethyl-1,3,4-thiadiazol-2-yl)thiomethyl-3-cephem-4-carboxylate] |  |  | 1.56 |  | 1.56 | 1.56 | 1.56 | ~150 | 3.13 | 0.78 | 1.56 | 0.78 | 6.25 | 0.1 | 1.56 | 12.5 | 11.5 | 2.5 | > 100 | 9.6 | MIC [2, 25]: 3.13 µg/mL; MIC [3, 26]: 0.78 µg/mL; MIC (Proteus morganii Kono; [30]): 3.13 µg/mL; MIC [6, 31]: 6.25 µg/mL; MIC [11, 34]: 6.25 µg/mL; MIC [12, 35]: 6.25 µg/mL; LD50 at 168 h (Acute toxicity in mice; male mice (ddY), iv, after 7 days): > 2000 mg/kg
